From publication PMC4277420, “Assessment of [^125I]WYE-230949 as a Novel Histamine H3 Receptor Radiopharmaceutical” (PLoS ONE, 2014)
Where “and” joins values, the source holds several entries; their conditions need not be identical. Identical values can stand only once.

Legend:
[1] = target: T1, rat histamine H3 receptor (Rattus norvegicus, UniProt Q9QYN8); experiment: In vitro saturation radioligand binding to rat brain homogenates
T1 construct: from tissue; host or cells: whole brain of male Sprague-Dawley rats, homogenate pellet
Description: Animals (male Sprague-Dawley rats; Harlan, UK) were killed by cervical dislocation. Whole brains were immediately excised and placed into ice-cold Tris-HCl buffer (Tris […], pH 7.4; EDTA 5 mM), homogenised and centrifuged at approx 40,000 g for 10 min at 4°C (Beckman J2-21M/E). The pellet was resuspended in 25 ml of buffer and centrifuged as previously, then the final pellet was resuspended in 10 ml of ice cold Tris buffer and stored at −50°C until required. Protein content was analysed using Bio-Rad reagent; absorbance was read on a spectrophotometer at 562 nm. [^125I]WYE230949 binding assays were carried out in a final incubation volume of 500 µl containing Tris-HCl buffer (Tris […], pH 7.4; EDTA 5 mM), brain homogenates (1.47 to 2.27 mg/ml of protein) and [^125I]WYE230949 (0.04–102 nM). Non-specific binding was defined in the presence of 10 µM iodophenpropit. Samples were incubated at 30°C for 30 min, then filtered rapidly through Whatman GF/B filters (pre-treated with 0.3% polyethylenimine; Aldrich, UK) using a Brandel M24R cell harvester and the filters washed with 3×4 ml ice-cold Tris buffer. Radioactivity on the filters was determined by liquid scintillation counting a minimum of 48 h after filtration. All assays were performed in triplicate. Specific binding was determined by subtracting non-specific binding from total binding at each concentration; Kd and Bmax values derived using GraphPad Prism (version 4.03), and expressed as mean ±SEM of the triplicate assays.

[2] = Partition and distribution co-efficients (logP and logD), shake-flask method; assay type: physicochemical
Description: The lipophilicity of [^125I]WYE-230949 was determined in octanol/water and at physiological pH using a modification of the shake-flask method. […] The radioactivity incorporated in both phases was determined using a gamma counter (Cobra Gamma Counter, Packard, Perkin Elmer Life and Analytical Sciences, Boston, MA, USA). The assay was performed in triplicate on 3 separate occasions. LogP was calculated to be log [counts in octanol/counts in water] and logD was calculated to be log [counts in octanol/counts in pH 7.4 buffer].

[3] = target: T2, histamine H3 receptor (Rattus norvegicus, UniProt Q9QYN8); experiment: Ex vivo autoradiography (target to cerebellum ratios); assay type: in vivo
T2 construct: Sections (20 µm) cut from a frozen rat brain were pre-incubated in Tris-HCl buffer; from tissue
Description: Animal experiments were conducted under the UK Animals (Scientific Procedures) Act 1986. This work was approved by the ethical review committee at the University of Glasgow (PPL: 60/3436) prior to the start of study. Naïve male Sprague-Dawley rats (Harlan, UK), weighing 217 to 352 g were either conscious or anaesthetised (2.5–3% isoflurane via a tracheostomy and artificial ventilation in 70/30% N2O/O2) for the duration of the experiment. Anaesthetised rats had their respiration and temperature monitored throughout. [^125I]WYE-230949 was administered via a femoral vein cannula to anaesthetised rats or via the lateral tail vein to conscious rats. The injected dose for each rat was calculated by measuring the syringe in a dose calibrator before and after [^125I]WYE-230949 administration. The radioactive and radiochemical amounts administered to individual rats ranged from 12.6 to 24.5 MBq and 0.32 to 0.70 µg/kg respectively in all in vivo studies.
Regional brain uptake was determined by ex vivo autoradiography, studies were performed in both conscious and anaesthetised rats in order to investigate the effect of anaesthesia on [^125I]WYE-230949 uptake. At either 30 or 120 min following [^125I]WYE-230949 administration rats were killed by cervical dislocation. The brains were removed, frozen in isopentane at −42°C and stored at −20°C before sectioning (20 µm) in a cryostat (Bright Instrument Company Ltd). Three sections were taken every 400 µm for the entire length of the rat brain and thaw mounted onto poly-L-lysine coated slides. Sections were dried at room temperature and apposed to X-ray film (Kodak Biomax MR-1) for approximately 2 weeks. The resultant autoradiograms were analysed using computer-based densitometry (MCID, Imaging Research, Canada). Relative optical density (ROD) measurements were obtained from 14 ROIs defined with reference to a rat brain atlas. For each brain region examined, bilateral readings were obtained in triplicate and the average reading determined. ROD values in the cerebellum were used as a measure of non-specific binding. Specific binding was calculated as ROD in ROI/ROD in cerebellum.

T2 sequence (Q9QYN8 whole entry): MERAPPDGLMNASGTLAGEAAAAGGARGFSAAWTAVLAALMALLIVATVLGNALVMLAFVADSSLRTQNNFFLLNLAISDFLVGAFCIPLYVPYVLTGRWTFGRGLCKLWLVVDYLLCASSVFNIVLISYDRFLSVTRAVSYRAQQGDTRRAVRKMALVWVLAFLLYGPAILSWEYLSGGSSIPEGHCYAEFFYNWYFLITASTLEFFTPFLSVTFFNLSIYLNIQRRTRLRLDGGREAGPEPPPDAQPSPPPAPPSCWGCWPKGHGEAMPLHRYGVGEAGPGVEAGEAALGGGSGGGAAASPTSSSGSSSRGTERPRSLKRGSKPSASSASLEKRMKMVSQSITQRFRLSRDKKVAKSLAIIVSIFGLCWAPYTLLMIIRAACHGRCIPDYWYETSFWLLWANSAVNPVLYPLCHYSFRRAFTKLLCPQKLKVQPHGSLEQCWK
T1 sequence (Q9QYN8 whole entry): as above

Compound: O=C(c1ccc(Cn2cnc3cccc([125I])c32)cc1)N1CC[C@H](N2CCCC2)C1 [[^125I]WYE-230949]
- Non-specific binding as % of total binding ([1]; at 6.6±0.1 nM, defined with 10 µM iodophenpropit, n = 3): 39±3%
- Bmax ([1]; whole rat brain homogenates, one-site binding model, n = 8): 508.6±34.9 fmol/mg protein and 509 fmol/mg protein
- logD7.4 ([2]; octanol/phosphate buffer pH 7.4, n = 3): 1.64±0.04
- logP ([2]; octanol/water, n = 3): 1.59±0.04
- Target to cerebellum ratio ([3]; Amygdala, 30 min, anaesthetised): 1.10±0.02
- Target to cerebellum ratio ([3]; Amygdala, 30 min, conscious): 1.12±0.04
- Target to cerebellum ratio ([3]; Amygdala, 120 min, anaesthetised): 1.16±0.03
- Target to cerebellum ratio ([3]; Amygdala, 120 min, conscious): 1.26±0.03
- Target to cerebellum ratio ([3]; Anterior Cortex, 30 min, anaesthetised): 1.09±0.03
- Target to cerebellum ratio ([3]; Anterior Cortex, 30 min, conscious): 1.15 ± 0.02
- Target to cerebellum ratio ([3]; Anterior Cortex, 120 min, anaesthetised): 1.10±0.02
- Target to cerebellum ratio ([3]; Anterior Cortex, 120 min, conscious): 1.16±0.02
- Target to cerebellum ratio ([3]; Caudate Putamen, 30 min, anaesthetised): 1.13±0.03
- Target to cerebellum ratio ([3]; Caudate Putamen, 30 min, conscious): 1.17±0.03
- Target to cerebellum ratio ([3]; Caudate Putamen, 120 min, anaesthetised): 1.20±0.04
- Target to cerebellum ratio ([3]; Caudate Putamen, 120 min, conscious): 1.32±0.04
- Target to cerebellum ratio ([3]; Choroid Plexus, 30 min, anaesthetised): 1.73±0.06
- Target to cerebellum ratio ([3]; Choroid Plexus, 30 min, conscious): 2.68±0.04
- Target to cerebellum ratio ([3]; Choroid Plexus, 120 min, anaesthetised): 1.79±0.10
- Target to cerebellum ratio ([3]; Choroid Plexus, 120 min, conscious): 2.66±0.11
- Target to cerebellum ratio ([3]; Hippocampus, 30 min, anaesthetised): 1.08±0.03
- Target to cerebellum ratio ([3]; Hippocampus, 30 min, conscious): 1.06±0.02
- Target to cerebellum ratio ([3]; Hippocampus, 120 min, anaesthetised): 1.08±0.01
- Target to cerebellum ratio ([3]; Hippocampus, 120 min, conscious): 1.10±0.02
- Target to cerebellum ratio ([3]; Hypothalamus, 30 min, anaesthetised): 1.16±0.03
- Target to cerebellum ratio ([3]; Hypothalamus, 30 min, conscious): 1.13±0.03
- Target to cerebellum ratio ([3]; Hypothalamus, 120 min, anaesthetised): 1.18±0.03
- Target to cerebellum ratio ([3]; Hypothalamus, 120 min, conscious): 1.18±0.02
- Target to cerebellum ratio ([3]; Medial Cortex, 30 min, anaesthetised): 1.10±0.03
- Target to cerebellum ratio ([3]; Medial Cortex, 30 min, conscious): 1.22±0.03
- Target to cerebellum ratio ([3]; Medial Cortex, 120 min, anaesthetised): 1.12±0.02
- Target to cerebellum ratio ([3]; Medial Cortex, 120 min, conscious): 1.21±0.02
- Target to cerebellum ratio ([3]; Nucleus Accumbens (Core), 30 min, anaesthetised): 1.12±0.03
- Target to cerebellum ratio ([3]; Nucleus Accumbens (Core), 30 min, conscious): 1.15±0.03
- Target to cerebellum ratio ([3]; Nucleus Accumbens (Core), 120 min, anaesthetised): 1.24±0.04
- Target to cerebellum ratio ([3]; Nucleus Accumbens (Core), 120 min, conscious): 1.36±0.03
- Target to cerebellum ratio ([3]; Nucleus Accumbens (Shell), 30 min, anaesthetised): 1.12±0.02
- Target to cerebellum ratio ([3]; Nucleus Accumbens (Shell), 30 min, conscious): 1.17±0.06
- Target to cerebellum ratio ([3]; Nucleus Accumbens (Shell), 120 min, anaesthetised): 1.24±0.04
- Target to cerebellum ratio ([3]; Nucleus Accumbens (Shell), 120 min, conscious): 1.33±0.05
- Target to cerebellum ratio ([3]; Posterior Cortex, 30 min, anaesthetised): 1.08±0.03
- Target to cerebellum ratio ([3]; Posterior Cortex, 30 min, conscious): 1.18±0.03
- Target to cerebellum ratio ([3]; Posterior Cortex, 120 min, anaesthetised): 1.13±0.03
- Target to cerebellum ratio ([3]; Posterior Cortex, 120 min, conscious): 1.26±0.02
- Target to cerebellum ratio ([3]; Substantia Nigra, 30 min, anaesthetised): 1.19±0.03
- Target to cerebellum ratio ([3]; Substantia Nigra, 30 min, conscious): 1.10±0.02
- Target to cerebellum ratio ([3]; Substantia Nigra, 120 min, anaesthetised): 1.26±0.04
- Target to cerebellum ratio ([3]; Substantia Nigra, 120 min, conscious): 1.26±0.03
- Target to cerebellum ratio ([3]; Thalamus, 30 min, anaesthetised): 1.10±0.03
- Target to cerebellum ratio ([3]; Thalamus, 30 min, conscious): 1.11±0.02
- Target to cerebellum ratio ([3]; Thalamus, 120 min, anaesthetised): 1.09±0.02
- Target to cerebellum ratio ([3]; Thalamus, 120 min, conscious): 1.08±0.02
- ratio of specific to non-specific binding ([3]; all brain ROIs, conscious and anaesthetised rats): less than 1.4
